From ChEMBL document CHEMBL1201862, “PubChem BioAssay data set” (2004)
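Each compound was tested at five concentrations against cells in 96-well plates for 48 hours. At the GI50, growth is halved.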 The source made the active and inactive calls. Rule as the data show it: active = GI50 up to about 1.1 µM and inactive = higher. Where a SMILES comes first, the peptide text is derived from it. [ ]: non-standard residue; d: D form. The star is where a group is joined. ξ: configuration not given here. X38 = O=C(OCc1ccccc1)[C@@H]1CCC[C@H]1N*; Fmoc = O=C(OCC1c2ccccc2-c2ccccc21)*; ξW = NC(Cc1c[nH]c2ccccc12)C(=O)O; ξF = NC(Cc1ccccc1)C(=O)O; Boc = CC(C)(C)OC(=O)*; ξK = NCCCCC(N)C(=O)O; ξT = CC(O)C(N)C(=O)O; tBu = CC(C)(C)*

Key:
Assay in all cases: growth of human tumour cells (NCI), 48 h
CCRF-CEM = tested on: CCRF-CEM
DU-145 = tested on: DU-145
EKVX = tested on: EKVX
Hs-578T = tested on: Hs-578T
K562 = tested on: K562
M14 = tested on: M14
MCF7 = tested on: MCF7
MDA-MB-435 = tested on: MDA-MB-435
Malme-3M = tested on: Malme-3M
NCI-H23 = tested on: NCI-H23
OVCAR-3 = tested on: OVCAR-3
OVCAR-5 = tested on: OVCAR-5
OVCAR-8 = tested on: OVCAR-8
PC-3 = tested on: PC-3
RPMI-8226 = tested on: RPMI-8226
RXF 393 = tested on: RXF 393
SN12C = tested on: SN12C
SW-620 = tested on: SW-620
UACC-257 = tested on: UACC-257
UO-31 = tested on: UO-31

Measured: GI50

COc1cc(NC=C2C(=O)OC(C)(C)OC2=O)c(OC)c(C)c1OC
inactive: CCRF-CEM > 100 µM | DU-145 > 100 µM | EKVX > 100 µM | Hs-578T > 100 µM | K562 > 100 µM | M14 > 100 µM | MCF7 > 100 µM | MDA-MB-435 > 100 µM | Malme-3M > 65.2 µM | NCI-H23 > 100 µM | OVCAR-3 > 100 µM | OVCAR-5 > 100 µM | OVCAR-8 > 100 µM | PC-3 > 100 µM | RPMI-8226 > 100 µM | RXF 393 > 100 µM | SN12C > 100 µM | SW-620 > 100 µM | UACC-257 > 100 µM | UO-31 > 100 µM

CC(C)(C)c1cc(OCc2nnc3sc(Cc4ccccc4)nn23)c(Cl)cc1OCc1nnc2sc(Cc3ccccc3)nn12
inactive: CCRF-CEM 3.27 µM | DU-145 33 µM | EKVX 27.3 µM | Hs-578T > 100 µM | K562 14.5 µM | M14 29 µM | MCF7 17.7 µM | MDA-MB-435 24.1 µM | Malme-3M 19.5 µM | NCI-H23 31.9 µM | OVCAR-3 30.7 µM | OVCAR-5 29 µM | OVCAR-8 17.1 µM | PC-3 30.1 µM | RPMI-8226 20.7 µM | RXF 393 18.1 µM | SN12C 44.6 µM | SW-620 26.7 µM | UACC-257 21.3 µM | UO-31 47.5 µM

[O-][S+]1SC(=S)C2C=CC=CC21 (stereo not given)
inactive: CCRF-CEM 2.37 µM | DU-145 > 100 µM | EKVX 57.5 µM | Hs-578T 84.3 µM | K562 > 100 µM | M14 23.2 µM | MCF7 76.9 µM | MDA-MB-435 80 µM | Malme-3M 95.9 µM | NCI-H23 > 100 µM | OVCAR-3 > 100 µM | OVCAR-5 > 100 µM | OVCAR-8 > 100 µM | PC-3 > 100 µM | RPMI-8226 92.9 µM | RXF 393 > 100 µM | SN12C > 100 µM | SW-620 > 100 µM | UACC-257 75.5 µM | UO-31 36.8 µM

C=C(C=O)c1c2c(nc3ccccc13)C(=O)c1ccccc1C2=O
inactive: EKVX 1.19 µM | Malme-3M 1.42 µM | OVCAR-5 1.9 µM | PC-3 1.29 µM | UACC-257 1.49 µM
active: CCRF-CEM 0.191 µM | DU-145 0.286 µM | Hs-578T 0.617 µM | K562 0.391 µM | M14 0.562 µM | MCF7 0.429 µM | MDA-MB-435 0.273 µM | NCI-H23 0.481 µM | OVCAR-3 0.398 µM | OVCAR-8 0.434 µM | RPMI-8226 0.296 µM | RXF 393 0.304 µM | SN12C 0.504 µM | SW-620 0.518 µM | UO-31 1.11 µM

CC(OC(C)(C)C)C(NC(=O)C(CCCCNC(=O)OC(C)(C)C)NC(=O)C(Cc1c[nH]c2ccccc12)NC(=O)C(Cc1ccccc1)NC(=O)OCC1c2ccccc2-c2ccccc21)C(=O)NC(Cc1ccccc1)C(=O)N[C@@H]1CCC[C@H]1C(=O)OCc1ccccc1 (stereo not given in full) (Fmoc-[ξF][ξW][ξK](Boc)[ξT](tBu)[ξF]-X38)
inactive: CCRF-CEM > 100 µM | DU-145 > 100 µM | EKVX > 100 µM | Hs-578T 31 µM | K562 > 100 µM | M14 38.9 µM | MCF7 > 100 µM | MDA-MB-435 > 100 µM | Malme-3M > 100 µM | NCI-H23 > 100 µM | OVCAR-3 > 100 µM | OVCAR-5 > 100 µM | OVCAR-8 > 100 µM | PC-3 > 100 µM | RPMI-8226 > 100 µM | RXF 393 > 100 µM | SN12C > 100 µM | SW-620 > 100 µM | UACC-257 > 100 µM | UO-31 > 100 µM

CC(O)CCC(=O)c1ccoc1 (stereo not given)
inactive: CCRF-CEM 5650 µM | DU-145 8200 µM | EKVX 6080 µM | Hs-578T 5120 µM | K562 6180 µM | M14 > 9420 µM | MCF7 5680 µM | MDA-MB-435 > 10000 µM | Malme-3M 6820 µM | NCI-H23 8110 µM | OVCAR-3 3610 µM | OVCAR-5 7820 µM | OVCAR-8 6840 µM | PC-3 6120 µM | RPMI-8226 3740 µM | RXF 393 4850 µM | SN12C 7180 µM | SW-620 > 9750 µM | UACC-257 5130 µM | UO-31 3390 µM

COc1cc(N(CCC#N)CCC#N)ccc1/C=C1\SC(=S)NC1=O
inactive: CCRF-CEM > 100 µM | DU-145 > 100 µM | EKVX > 100 µM | Hs-578T > 100 µM | K562 > 100 µM | M14 > 100 µM | MCF7 > 100 µM | MDA-MB-435 > 100 µM | Malme-3M > 100 µM | NCI-H23 > 100 µM | OVCAR-3 > 100 µM | OVCAR-5 > 100 µM | OVCAR-8 > 100 µM | PC-3 > 100 µM | RPMI-8226 > 100 µM | RXF 393 > 100 µM | SN12C > 100 µM | SW-620 > 100 µM | UACC-257 > 100 µM | UO-31 > 100 µM

CC(C)C(=O)Oc1cc2c(=O)oc3c(OC(=O)C(C)C)c(OC(=O)C(C)C)cc4c(=O)oc(c1OC(=O)C(C)C)c2c34
inactive: CCRF-CEM > 100 µM | DU-145 > 100 µM | EKVX > 100 µM | Hs-578T > 100 µM | K562 > 100 µM | M14 > 100 µM | MCF7 > 100 µM | MDA-MB-435 > 100 µM | Malme-3M > 100 µM | NCI-H23 > 100 µM | OVCAR-3 > 100 µM | OVCAR-5 > 100 µM | OVCAR-8 > 100 µM | PC-3 > 100 µM | RPMI-8226 > 100 µM | RXF 393 > 100 µM | SN12C > 100 µM | SW-620 > 100 µM | UACC-257 > 100 µM | UO-31 > 100 µM

CNC(=O)Nc1ccccc1
inactive: CCRF-CEM > 100 µM | DU-145 > 100 µM | EKVX > 100 µM | Hs-578T > 100 µM | K562 > 100 µM | M14 > 100 µM | MCF7 > 100 µM | MDA-MB-435 > 100 µM | Malme-3M > 100 µM | NCI-H23 > 100 µM | OVCAR-3 > 100 µM | OVCAR-5 > 100 µM | OVCAR-8 > 100 µM | PC-3 > 100 µM | RPMI-8226 > 100 µM | RXF 393 > 100 µM | SN12C > 100 µM | SW-620 > 100 µM | UACC-257 > 100 µM | UO-31 > 100 µM

CC1=C[C@H]([C@H]2C=C(C)C(C(N)=O)=CN2Cc2c(Cl)cccc2Cl)N(Cc2c(Cl)cccc2Cl)C=C1C(N)=O
inactive: CCRF-CEM 45.4 µM | DU-145 > 75 µM | EKVX > 75 µM | Hs-578T > 75 µM | K562 > 75 µM | M14 > 75 µM | MCF7 > 75 µM | MDA-MB-435 > 75 µM | Malme-3M > 75 µM | NCI-H23 > 75 µM | OVCAR-3 > 75 µM | OVCAR-5 > 75 µM | OVCAR-8 52.7 µM | PC-3 > 75 µM | RPMI-8226 69.7 µM | RXF 393 74.5 µM | SN12C > 75 µM | SW-620 > 75 µM | UACC-257 73.8 µM | UO-31 > 75 µM
